The target of data set [1] is T1, recombinant Trypanosome AOX (TAO) enzyme (Trypanosoma brucei brucei, UniProt Q26710).
T1 construct: made in house; host or cells: Escherichia coli (membrane fraction)
The data set can be described thus: TAO enzyme inhibition (quinol oxidase activity, ubiquinol-1 substrate). The class given is biochemical, T. brucei brucei. To be noted: TAO-expressing E. coli membrane fraction, 25° C., ubiquinol-1, absorbance at 278 nm. As for the experimental part:
Escherichia coli membrane fractions that express TAO by a plasmid harboring TAO cDNA cloned from T. brucei brucei (Fukai, Comparative Biochemistry & Physiology, 124, 141-148, 1999) were used as a recombinant Trypanosome AOX (TAO) enzyme. 50 mM Tris-HCl (pH 7.5), TAO-expressing membrane fraction (0.35 ng), and […] of an inhibitor were mixed in a 1 mL cuvette, and the mixture was incubated at 25° C. for 4 minutes. Ubiquinol-1 as a substrate was then added to the mixture to initiated the reaction, and change in absorbance at 278 nm was monitored (Shimadzu UV-3000, molar absorption coefficient ε=15 cm^−1 mM^−1).

For another data set, the system named is T. b. rhodesiense IL1501. The data set can be described thus: Antiprotozoal effect, MIC measurement in HMI-9 culture. The class given is cell-based. To be noted: for MIC: Trypanosoma brucei, RHODESIENSE, 24 h, bloodstream forms, 18 + 6 hours culture. The procedure: T. b. rhodesiense IL1501, the human infectious protozoan that causes acute symptoms, was used as a Trypanosomatid protozoan. The bloodstream forms of protozoan can be cultured in a HMI-9 culture medium (Hirumi, 1989). The protozoan was always cultured at a temperature of 37° C. in the presence of 5% CO2.
In a microtiter plate (96-well, FALCON 3072), HMI-9 culture medium and HMI-9 culture medium plus glycerol added to make a final concentration of 8.33 mM are separately prepared. 89 μL of the preparation are put into only the first well, and a 60 μL aliquot of each the other wells. 1 μL of a solution of AF or a AF derivative dissolved in DMSO was added to the first well, and was then suspended. A 30 μL aliquot of the suspension was then collected, was transferred to the second well, and was suspended. These operations were repeated in this order to prepare a three-fold dilution series of drug. A 40 μL aliquot of a protozoan culture was added to each well to make a final concentration of 5×10^4 cells/well (a final concentration of glycerol of 5 mM) followed by 18-hours culturing under conditions of 37° C. and 5% CO2. (For EC50 measurement, a 10 μL aliquot of Alamar Blue was added to each well), culturing was carried out under the same conditions for 6 more hours, surviving protozoans were visually observed with a microscope. The concentration at which no motile surviving protozoan was observed was defined as MIC.

The target of data set [2] is Cryptosporidium cyanide insensitive oxidase (AOX), recombinant protein (cCpAOX) (Cryptosporidium parvum, UniProt Q761U6). The data set can be described thus: CpAOX enzyme inhibition. The class given is biochemical. The text has this: Cryptosporidium has found to have cyanide insensitive oxidase (AOX), and its inhibitory activity was observed using its recombinant protein (cCpAOX) produced in E. coli.

Where [3] appears, read: Glycerol (+), final concentration of glycerol of 5 mM.

SMILES strings stand for the structures. pIC50: −log10 of the molar value.

T1 sequence (Q26710 whole entry): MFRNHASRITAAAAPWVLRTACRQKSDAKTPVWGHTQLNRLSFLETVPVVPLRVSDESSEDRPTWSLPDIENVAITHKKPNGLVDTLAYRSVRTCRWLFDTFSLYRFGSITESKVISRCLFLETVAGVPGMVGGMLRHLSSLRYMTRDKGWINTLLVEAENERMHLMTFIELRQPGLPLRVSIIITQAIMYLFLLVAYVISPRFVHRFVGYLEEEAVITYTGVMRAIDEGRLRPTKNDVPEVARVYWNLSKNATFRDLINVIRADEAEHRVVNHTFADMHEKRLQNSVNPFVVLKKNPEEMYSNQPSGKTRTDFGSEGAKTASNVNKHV
Chain of Cryptosporidium cyanide insensitive oxidase (AOX), recombinant protein (cCpAOX) (Q761U6 entry or part of it): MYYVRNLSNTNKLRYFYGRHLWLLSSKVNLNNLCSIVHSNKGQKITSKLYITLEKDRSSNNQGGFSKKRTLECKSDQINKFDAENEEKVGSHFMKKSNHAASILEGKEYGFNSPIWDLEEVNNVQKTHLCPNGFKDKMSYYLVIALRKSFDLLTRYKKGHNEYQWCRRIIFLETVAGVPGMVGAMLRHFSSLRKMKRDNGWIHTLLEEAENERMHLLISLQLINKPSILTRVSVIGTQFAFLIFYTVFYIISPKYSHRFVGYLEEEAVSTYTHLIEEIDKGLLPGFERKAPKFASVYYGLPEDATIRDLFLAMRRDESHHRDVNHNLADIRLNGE

Turning to `C/C(=C\Cc1c(O)c(Cl)c(C)c(C=O)c1O)CC/C=C(\C)C1OC(C)C(C)O1` (centres unmarked) [Compound 509-11, 3-Chloro-5-((2E,6E)-7-(4,5-dimethyl-1,3-dioxolane-2-yl)-3-methyl-2,6-octadienyl)-4,6-dihydroxy-2-methylbenzaldehyde], the melting point – broadly, the temperature of the solid-liquid transition – is 35 to 36 °C. The negative logarithm of the IC50 (pIC50) – broadly, −log10 of the IC50, conventionally taken in molar units – in data set [1] is 9.52.
Compound `CCCCCC(C)=CCc1c(O)c(Cl)c(C)c(C(C)=O)c1O` (mixture of isomers) [Compound 268-8, (E/Z)-3-Chloro-4,6-dihydroxy-2-methyl-5-(3-methyl-2-octenyl)acetophenone] had a melting point of 42 to 46 °C. The pIC50 in data set [1] is 9.26. Further, the MIC (commonly the lowest concentration that inhibits growth of the organism) in the data set on T. b. rhodesiense IL1501 (setting [3]) was 0.28 nM. For the same compound, the minimal inhibitory concentration (MIC) in the data set with T. b. rhodesiense IL1501 (Glycerol (−)) is 14.7 nM.
As for `Cc1c(Cl)c(O)c(/C=C/CCCCCCOC(=O)C(C)(C)C)c(O)c1C=O` [Compound 200-12-OPiv, (E)-8-(3-Chloro-5-formyl-2,6-dihydroxy-4-methylphenyl)-7-octenyl pivalate], the melting point fell in the range of 57 to 58 °C. The pIC50 in data set [1] was 9.15.
With `Cc1c(Cl)c(O)c(CCCCCCCOC(=O)C(C)(C)C)c(O)c1C#N` [Compound 193-11-OPiv, 7-(3-Chloro-5-cyano-2,6-dihydroxy-4-methylphenyl)heptyl pivalate], the melting point lay in the range of 67 to 68 °C. Also, the negative logarithm of the IC50 (pIC50) in data set [1] was 8.22.
`COCOC/C(C)=C/CC/C(C)=C/Cc1c(O)c(Cl)c(C)c(C=O)c1O` [Compound 236-12-OMOM, 3-Chloro-5-[(2E,6E)-3,7-dimethyl-8-(methoxymethoxy)-2,6-octadienyl]-4,6-dihydroxy-2-methylbenzaldehyde] displayed a melting point of 49 to 50 °C. In data set [1], the pIC50 is 9.92.
As to `C/C(=C\Cc1c(O)c(Cl)cc(C=O)c1O)CC/C=C(\C)C1CC(=O)C(C)(C)O1` (centres unmarked) [Compound 209, 5-Chloro-2,4-dihydroxy-3-[(2E,6E)-7-(5,5-dimethyl-4-oxotetrahydrohuran-2-yl)-3,7-dimethyl-2,6-heptadienyl]benzaldehyde], the melting point lay in the range of 70 to 72 °C. In addition, in data set [1], the pIC50 was 9.70.
`CC(=O)c1c(C)c(Cl)c(O)c(C/C=C(\C)CC/C=C(\C)CCC=C(C)C)c1O` [Compound 282-12, (E,E)-3-Chloro-4,6-dihydroxy 5-(3,7,11-trimethyl-2,6,10-dodecathenyl)-2-methylacetophenone] had a melting point of 92 to 93 °C. Moreover, the negative-log IC50 (pIC50) in data set [1] is 9.82. In addition, the MIC with T. b. rhodesiense IL1501 (setting [3]) was determined as 11 nM. The MIC with T. b. rhodesiense IL1501 (Glycerol (−)) was 19 nM.
`CCC(=O)OCCCCCCC/C=C/c1c(O)c(Cl)c(C)c(C=O)c1O` [Compound 200-13-OCOEt, (E)-9-(3-Chloro-5-formyl-2,6-dihydroxy-4-methylphenyl)-8-nonenyl propionate] returned a melting point of 72 to 73 °C. Also, the negative-log IC50 (pIC50) in data set [1] was 9.52.
In the case of `CC(C)=CCC/C(C)=C/Cc1c(O)cc(C)c(C=O)c1O` [Compound 216, (E)-2,4-Dihydroxy-3-(3,7-dimethyl-2,6-octadienyl)-6-methylbenzaldehyde], the melting point was 120 to 121 °C.
As to `Cc1c(Cl)c(O)c(CCC(C)CCCC(C)COC(=O)C(C)(C)C)c(O)c1C=O` (centres unmarked) [Compound 235-12-OPiv, 8-(3-Chloro-5-formyl-2,6-dihydroxy-4-methylphenyl)-2,6-dimethyloctyl pivalate], the pIC50 in data set [2] was 8.64.
`CC(C)=CCCC#CCc1c(O)c(Cl)c(C)c(C=O)c1O` [Compound 285-8, 3-Chloro-4,6-dihydroxy-2-methyl-5-(7-methyl-6-octen-2-ynyl)benzaldehyde] showed a melting point of 138 °C. The pIC50 in data set [1] was 9.52.
As to `Cc1c(Cl)c(O)c(CCCCCCCCCCCC(=O)O)c(O)c1C=O` [Compound 215-13-COOH, 12-(3-Chloro-5-formyl-2,6-dihydroxy-4-methylphenyl)dodecanoic acid], the melting point lay within 130 to 131 °C. For the same compound, in data set [1], the pIC50 is 8.38.
Regarding `Cc1c(Cl)c(O)c(CCCCCCCC(=O)O)c(O)c1C=O` [Compound 215-9-COOH, 8-(3-Chloro-5-formyl-2,6-dihydroxy-4-methylphenyl)octanoic acid], the melting point is 149 to 150 °C.
The compound `C/C(C=O)=C\CC/C(C)=C/Cc1c(O)c(Cl)c(C)c(C=O)c1O` [Compound 274-9, 3-Chloro-5-[(2E,6E)-3,7-dimethyl-8-oxo-2,6-octadienyl]-4,6-dihydroxy-2-methylbenzaldehyde] had a melting point of 111.2 to 111.4 °C. In addition, the pIC50 in data set [1] was 9.52.
The compound `CC(C)=CCC/C(C)=C/Cc1c(O)c(Cl)cc(C=O)c1O` [Compound 224, (E)-5-Chloro-2,4-dihydroxy-3-(3,7-dimethyl-2,6-octadienyl)benzaldehyde] registered a melting point of 94 to 95 °C.
Compound `COC(=O)c1cc(Cl)c(O)c(C/C=C(\C)CCC=C(C)C)c1O` returned a melting point of 71 °C.
Consider `C/C(=C\Cc1c(O)c(Cl)c(C)c(C=O)c1O)CC/C=C(\C)COC1CCCO1` (centres unmarked) [Compound 236-12-OTHF, 3-Chloro-5-[(2E,6E)-3,7-dimethyl-8-(tetrahydrofuran-2-yloxy)-2,6-octadienyl]-4,6-dihydroxy-2-methylbenzaldehyde], for which the melting point was 35 to 36 °C. Moreover, the pIC50 in data set [1] is 9.92.
Compound `CCCCCC(C)CCc1c(O)c(Cl)c(C)c(C=O)c1O` (centres unmarked) [Compound 265-8, 3-Chloro-4,6-dihydroxy-2-methyl-5-(3-methyloctyl)benzaldehyde] displayed a melting point of 65 to 67 °C. Also, in data set [1], the negative logarithm of the IC50 (pIC50) is 9.74. Moreover, the minimal inhibitory concentration (MIC) in the data set on T. b. rhodesiense IL1501 (setting [3]) was 0.011 nM. For the same compound, the minimal inhibitory concentration (MIC) in the data set on T. b. rhodesiense IL1501 (Glycerol (−)) is 0.46 nM.
Take `CC(=O)c1cc(Cl)c(O)c(CCCCCCCOC(=O)C(C)(C)C)c1O` [Compound 178-11-OPiv, 7-(3-Acetyl-5-chloro-2,6-dihydroxyphenyl)heptyl pivalate]: the melting point was 48 °C.
For `Cc1c(Cl)c(O)c(CCCCCCCCCC(=O)OCC2COC(=O)O2)c(O)c1C=O` (centres unmarked) [Compound 501-16-G, 1,3 Dioxolane-2-oxo-4-methyl 10-(3-chloro-5-formyl-2,6-dihydroxy-4-methylphenyl)decanoate], the melting point lay in the range of 70 to 72 °C. In addition, in data set [1], the negative-log IC50 (pIC50) was 9.49. The minimal inhibitory concentration (MIC) in the data set with T. b. rhodesiense IL1501 (setting [3]) amounted to 1800 nM. The MIC in the data set on T. b. rhodesiense IL1501 (Glycerol (−)) stood at 14000 nM.
In turn, `CC(C)=CCC/C(C)=C/Cc1c(O)ccc(C=O)c1O` [Compound 217, (E)-2,4-Dihydroxy-3-(3,7-dimethyl-2,6-octadienyl)benzaldehyde] registered a melting point of 85 °C.
`CC(=O)c1c(C)c(Cl)c(O)c(C/C=C(\C)CCC=C(C)C)c1O` [Compound 173, (E)-3-Chloro-4,6-dihydroxy-5-(3,7-dimethyl-2,6-octadienyl)-2-methylacetophenone] came in with a melting point of 57 to 58 °C. Moreover, the negative logarithm of the IC50 (pIC50) in data set [1] is 9.82. Further, in the data set with T. b. rhodesiense IL1501 (Glycerol (+), final concentration of glycerol of 5 mM, cell prints its own unit fM), the “Antiprotozoal Effect (MIC) Glycerol (+)” value stood at 0.0008 nM. Further, in the data set with T. b. rhodesiense IL1501 (Glycerol (−)), the minimal inhibitory concentration (MIC) was 1.4 nM.
Regarding `Cc1c(Cl)c(O)c(CCCCCCCCCOC(=O)C(C)(C)C)c(O)c1C=O` [Compound 215-13-OPiv, 9-(3-Chloro-5-formyl-2,6-dihydroxy-4-methylphenyl)nonyl pivalate], the melting point was found to be 62 °C. The pIC50 in data set [1] was 9.66. Also, the minimal inhibitory concentration (MIC) with T. b. rhodesiense IL1501 (setting [3]) was found to be 0.0081 nM. In addition, the MIC in the data set on T. b. rhodesiense IL1501 (Glycerol (−)) was 280 nM.
As for `C/C(=C\Cc1c(O)c(Cl)c(C)c(C=O)c1O)CC/C=C(\C)CCC1OC1(C)C` (centres unmarked) [Compound 281-12, 3-Chloro-5-[(2E,6E)-3,7-dimethyl-9-(3,3-dimethyloxiran-2-yl)-2,6-nonadienyl]-4,6-dihydroxy-2-methylbenzaldehyde], the melting point fell in the range of 36 to 37 °C. The pIC50 in data set [1] is 9.68.
On to `Cc1c(Cl)c(O)c(CCCCCCCC2CC(=O)C(C)(C)O2)c(O)c1C=O` (centres unmarked) [Compound 250, 5-Chloro-2,4-dihydroxy-6-methyl-3-[7-(3,3-dimethyl-4-oxo-2-oxacyclopentyl)heptyl]benzaldehyde], for which the melting point lay in the range of 70 to 71 °C. In addition, in data set [1], the negative-log IC50 (pIC50) is 9.30. Further, the MIC in the data set with T. b. rhodesiense IL1501 (setting [3]) was 0.78 nM. Besides, in the data set on T. b. rhodesiense IL1501 (Glycerol (−)), the minimal inhibitory concentration (MIC) worked out at 12 nM.
As for `C/C(=C\CC/C(C)=C/Cc1c(O)c(Cl)c(C)c(C=O)c1O)CO` [Compound 236-9-OH, 3-Chloro-4,6-dihydroxy-5-[(2E,6E)-8-hydroxy-3,7-dimethyl-2,6-octadienyl]-2-methylbenzaldehyde], the melting point was 99 to 99.7 °C. Moreover, in data set [1], the pIC50 was 9.52.
